Results published in the supplement of paper PMC4862054.

What was measured:
Conditions in all cases: incubation time: 72 h
BT-474 [1] = experiment: normalised response (% of control), CellTox Green; higher = less cell death (100 = DMSO, 0 = benzethonium chloride kill control)
Outline: (§1)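 Values are normalised signals, each belonging to one concentration of the series. Breast cancer cells (20 µl suspension) were seeded into 384-well plates with compound at 5 concentrations in 10-fold steps over a compound-specific 10,000-fold range and incubated 72 h. Readouts were CellTox Green fluorescence (485/520 nm), then CellTiter-Glo luminescence after 10 min at room temperature, with each plate set to 0.1 % DMSO as 100 and a positive kill control as 0.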

BT-549 [2] = experiment: as above
Outline: as §1

CAL-120 [3] = experiment: as above
Outline: as §1

CAL-148 [4] = experiment: as above
Outline: as §1

CAL-51 [5] = experiment: as above
Outline: as §1

CAL-85-1 [6] = experiment: as above
Outline: as §1

DU-4475 [7] = experiment: as above
Outline: as §1

HCC1143 [8] = experiment: as above
Outline: as §1

HCC1599 [9] = experiment: as above
Outline: as §1

HCC1937 [10] = experiment: as above
Outline: as §1

HDQ-P1 [11] = experiment: as above
Outline: as §1

Hs578T [12] = experiment: as above
Outline: as §1

MCF-10A [13] = experiment: as above
Outline: as §1

MDA-MB-231 [14] = experiment: as above
Outline: as §1

MDA-MB-436 [15] = experiment: as above
Outline: as §1

MDA-MB-453 [16] = experiment: as above
Outline: as §1

MDA-MB-468 [17] = experiment: as above
Outline: as §1

MFM-223 [18] = experiment: as above
Outline: as §1

BT-474 [19] = experiment: normalised response (% of control), CellTiter-Glo; higher = more viable cells (100 = DMSO, 0 = benzethonium chloride kill control)
Outline: as §1

BT-549 [20] = experiment: as above
Outline: as §1

CAL-120 [21] = experiment: as above
Outline: as §1

CAL-148 [22] = experiment: as above
Outline: as §1

CAL-51 [23] = experiment: as above
Outline: as §1

CAL-85-1 [24] = experiment: as above
Outline: as §1

DU-4475 [25] = experiment: as above
Outline: as §1

HCC1143 [26] = experiment: as above
Outline: as §1

HCC1599 [27] = experiment: as above
Outline: as §1

HCC1937 [28] = experiment: as above
Outline: as §1

HDQ-P1 [29] = experiment: as above
Outline: as §1

Hs578T [30] = experiment: as above
Outline: as §1

MCF-10A [31] = experiment: as above
Outline: as §1

MDA-MB-231 [32] = experiment: as above
Outline: as §1

MDA-MB-436 [33] = experiment: as above
Outline: as §1

MDA-MB-453 [34] = experiment: as above
Outline: as §1

MDA-MB-468 [35] = experiment: as above
Outline: as §1

MFM-223 [36] = experiment: as above
Outline: as §1

SK-BR-3 = experiment: as above
Outline: as §1

Row | SMILES | normalised response (BT-474 [1]) [%] | normalised response (BT-549 [2]) [%] | normalised response (CAL-120 [3]) [%] | normalised response (CAL-148 [4]) [%] | normalised response (CAL-51 [5]) [%] | normalised response (CAL-85-1 [6]) [%] | normalised response (DU-4475 [7]) [%] | normalised response (HCC1143 [8]) [%] | normalised response (HCC1599 [9]) [%] | normalised response (HCC1937 [10]) [%] | normalised response (HDQ-P1 [11]) [%] | normalised response (Hs578T [12]) [%] | normalised response (MCF-10A [13]) [%] | normalised response (MDA-MB-231 [14]) [%] | normalised response (MDA-MB-436 [15]) [%] | normalised response (MDA-MB-453 [16]) [%] | normalised response (MDA-MB-468 [17]) [%] | normalised response (MFM-223 [18]) [%] | normalised response (BT-474 [19]) [%] | normalised response (BT-549 [20]) [%] | normalised response (CAL-120 [21]) [%] | normalised response (CAL-148 [22]) [%] | normalised response (CAL-51 [23]) [%] | normalised response (CAL-85-1 [24]) [%] | normalised response (DU-4475 [25]) [%] | normalised response (HCC1143 [26]) [%] | normalised response (HCC1599 [27]) [%] | normalised response (HCC1937 [28]) [%] | normalised response (HDQ-P1 [29]) [%] | normalised response (Hs578T [30]) [%] | normalised response (MCF-10A [31]) [%] | normalised response (MDA-MB-231 [32]) [%] | normalised response (MDA-MB-436 [33]) [%] | normalised response (MDA-MB-453 [34]) [%] | normalised response (MDA-MB-468 [35]) [%] | normalised response (MFM-223 [36]) [%] | normalised response (SK-BR-3) [%]
1 | CC(C)Cn1cnc2c(N)nc3ccccc3c21 [Imiquimod] (250 nM) | 88.2 | 98.3 | 99.5 | 76.8 | 94.4 | 89.3 | 101 | 99.4 | 97.7 | 112 | 104 | 54.6 | 109 | 102 | 107 | 103 | 119 | 92.9 | 110 | 105 | 95 | 98 | 99 | 97.5 | 103 | 101 | 104 | 93 | 97.7 | 98.7 | 104 | 105 | 101 | 107 | 97 | 101 | 105
2 | N#CCNC(=O)c1ccc(-c2ccnc(Nc3ccc(N4CCOCC4)cc3)n2)cc1 [Momelotinib] (1000 nM) | 101 | 96.5 | 102 | 98.7 | 117 | 89.6 | 97.7 | 113 | 95.9 | – | 111 | 99.4 | 108 | 100 | 103 | 108 | 178 | 99.5 | 77.1 | 89.6 | 75.8 | 85 | 122 | 92.7 | 90.5 | 91.7 | 110 | 108 | 107 | 93 | 77 | 77.2 | 96.9 | 113 | 82.5 | 93.4 | 86.6
3 | CS(=O)(=O)c1ccc(C2=C(c3ccccc3)C(=O)OC2)cc1 [Rofecoxib] (1000 nM) | 102 | 98.2 | 101 | 105 | 99.8 | 112 | 112 | 116 | 100 | 96 | 82 | 108 | 118 | 112 | 99.2 | 108 | 127 | 103 | 101 | 95.4 | 103 | 102 | 104 | 103 | 98.8 | 103 | 118 | 97 | 100 | 112 | 122 | 107 | 105 | 97 | 103 | 104 | 116
4 | O=C(CCCCCCC(=O)Nc1ccc([C@H]2O[C@@H](CSc3nc(-c4ccccc4)c(-c4ccccc4)o3)C[C@@H](c3ccc(CO)cc3)O2)cc1)NO [Tubacin] (1000 nM) | 95.5 | 114 | 100 | 99.9 | 93.4 | 102 | 101 | 105 | 97.9 | 55.1 | 72.7 | 93.4 | 113 | 88.2 | 90.3 | 103 | -536 | 86.1 | 91.3 | 89.3 | 88.6 | 95.4 | 77.8 | 72.2 | 91.9 | 90.2 | 93.2 | 82.6 | 88.2 | 95.3 | 105 | 81.4 | 94.8 | 70.3 | 61.7 | 78.3 | 95.3
